# Counter-ions that a name gives are not always drawn.
# Molecular target: T1, Rat recombinant PDE10A (rPDE10A) (Rattus norvegicus, UniProt Q9QYJ6)
# T1 construct: made in house; host or cells: Sf9 insect cells (baculovirus)
# T1 sequence (Q9QYJ6 1-794): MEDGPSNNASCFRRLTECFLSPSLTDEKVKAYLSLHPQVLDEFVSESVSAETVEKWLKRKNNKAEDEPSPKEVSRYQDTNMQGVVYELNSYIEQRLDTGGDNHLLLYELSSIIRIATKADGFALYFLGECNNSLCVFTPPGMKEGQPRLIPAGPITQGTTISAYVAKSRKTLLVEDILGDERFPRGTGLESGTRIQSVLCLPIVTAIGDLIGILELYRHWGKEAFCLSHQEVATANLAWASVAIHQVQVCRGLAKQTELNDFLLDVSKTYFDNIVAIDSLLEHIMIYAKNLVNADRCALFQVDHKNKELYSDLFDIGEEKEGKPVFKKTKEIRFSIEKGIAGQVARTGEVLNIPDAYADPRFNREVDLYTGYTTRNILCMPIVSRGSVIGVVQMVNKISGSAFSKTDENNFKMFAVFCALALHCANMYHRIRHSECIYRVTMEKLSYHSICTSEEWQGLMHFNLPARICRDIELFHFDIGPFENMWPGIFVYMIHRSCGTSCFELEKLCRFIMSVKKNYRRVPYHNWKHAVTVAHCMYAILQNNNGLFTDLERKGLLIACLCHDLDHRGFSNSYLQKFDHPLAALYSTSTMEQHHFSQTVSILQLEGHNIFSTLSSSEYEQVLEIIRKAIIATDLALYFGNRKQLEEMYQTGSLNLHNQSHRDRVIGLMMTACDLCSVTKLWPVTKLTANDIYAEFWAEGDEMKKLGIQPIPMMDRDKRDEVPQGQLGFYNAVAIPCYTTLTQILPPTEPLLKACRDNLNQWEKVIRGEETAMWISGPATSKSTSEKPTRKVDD
# Assay: rat PDE10A2-cAMP inhibition, in vitro SPA assay
# Type: biochemical
# Settings: 60 nM cAMP substrate
# Description: Rat recombinant PDE10A (rPDE10A) was expressed in Sf9 cells using a recombinant rPDE10A baculovirus construct. Cells were harvested after 48 h of infection and the rPDE10A protein was purified by metal chelate chromatography on Ni-sepharose 6FF. Tested compounds were dissolved and diluted in 100% DMSO to a concentration 100 fold of the final concentration in the assay. Compound dilutions (0.4 μl) were added in 384 well plates to 20 μl of incubation buffer (50 mM Tris pH 7.8, 8.3 mM MgCl2, 1.7 mM EGTA). 10 μl of rPDE10A enzyme in incubation buffer was added and the reaction was started by addition of 10 μl substrate to a final concentration of 60 nM cAMP and 0.008 μCi 3H-cAMP. The reaction was incubated for 60 minutes at room temperature. […] After sedimentation of the beads during 30 minutes, the radioactivity was measured in a Perkin Elmer Topcount scintillation counter and results were expressed as cpm. For blanc values the enzyme was omitted from the reaction and replaced by incubation buffer. Control values were obtained by addition of a final concentration of 1% DMSO instead of compound.
IC50 [nM],pIC50,Compound
13.8,,"FCCCn1cc(-c2ccncc2)c(-c2ccc(OCc3ncccc3OCCF)cc2)n1 [Compound B13, 3-(2-fluoroethoxy)-2-[[4-[1-(3-fluoropropyl)-4-(4-pyridinyl)-1H-pyrazol-3-yl]phenoxy]methyl]pyridine.succinate]"
20.9,,"CCOc1cccc(COc2ccc(-c3nn(CCF)cc3-c3ccncc3)cc2)n1 [Compound B25, 2-ethoxy-6-[[4-[1-(2-fluoroethyl)-4-(4-pyridinyl)-1H-pyrazol-3-yl]phenoxy]methyl]-pyridine.succinate]"
,7.1,"N#Cc1ccc(COc2ccc(-c3nn(CCF)cc3-c3ccncc3)cc2)nc1 [Compound B21, 6-[[4-[1-(2-fluoroethyl)-4-(4-pyridinyl)-1H-pyrazol-3-yl]phenoxy]methyl]-3-pyridinecarbonitrile]"
,8.6,"Cc1cccc(COc2ccc(-c3nn(CCF)cc3-c3ccncc3)cc2)n1 [Compound B1, 2-[[4-[1-(2-fluoroethyl)-4-(4-pyridinyl)-1H-pyrazol-3-yl]phenoxy]methyl]-6-methyl-pyridine.dihydrochloride]"
33.1,,"FCCn1cc(-c2ccncc2)c(-c2ccc(OCc3cccc(C4CC4)n3)cc2)n1 [Compound B8, 2-Cyclopropyl-6-[[4-[1-(2-fluoroethyl)-4-(4-pyridinyl)-1H-pyrazol-3-yl]phenoxy]methyl]-pyridine.succinate]"
1.62,,"Cc1cnc(COc2ccc(-c3nn(CCF)cc3-c3ccncc3)cc2)c(C)c1 [Compound B3, 2-[[4-[1-(2-fluoroethyl)-4-(4-pyridinyl)-1H-pyrazol-3-yl]phenoxy]methyl]-3,5-dimethyl-pyridine.succinate]"
3.8,,"FCCOc1cccnc1COc1ccc(-c2nn(CCF)cc2-c2ccncc2)cc1 [Compound B17, 3-(2-fluoroethoxy)-2-[[4-[1-(2-fluoroethyl)-4-(4-pyridinyl)-1H-pyrazol-3-yl]phenoxy]methyl]pyridine.succinate]"
2.95,,"COc1cccc(COc2ccc(-c3nn(CCF)cc3-c3ccncc3)cc2)n1 [Compound B24, 2-[[4-[1-(2-fluoroethyl)-4-(4-pyridinyl)-1H-pyrazol-3-yl]phenoxy]methyl]-6-methoxy-pyridine.succinate]"
14.5,,"COc1ccc(COc2ccc(-c3nn(CCCF)cc3-c3ccncc3)cc2)nc1 [Compound B14, 2-[[4-[1-(3-fluoropropyl)-4-(4-pyridinyl)-1H-pyrazol-3-yl]phenoxy]methyl]-5-methoxy-pyridine.0.5 succinate]"
9.77,,"FCCn1cc(-c2ccncc2)c(-c2ccc(OCc3cccc(Br)n3)cc2)n1 [Compound B6, 2-bromo-6-[[4-[1-(2-fluoroethyl)-4-(4-pyridinyl)-1H-pyrazol-3-yl]phenoxy]methyl]-pyridine.0.75 succinate]"
,7.7,"Cc1cccc(COc2ccc(-c3nn(CCCF)cc3-c3ccncc3)cc2)n1 [Compound B2, 2-[[4-[1-(3-fluoropropyl)-4-(4-pyridinyl)-1H-pyrazol-3-yl]phenoxy]methyl]-6-methyl-pyridine.hydrochloride]"
4.37,,"Cc1cnc(COc2ccc(-c3nn(CCF)cc3-c3ccncc3)cc2)c(C)c1C [Compound B28, 2-[[4-[1-(2-fluoroethyl)-4-(4-pyridinyl)-1H-pyrazol-3-yl]phenoxy]methyl]-3,4,5-trimethyl-pyridine.succinate]"
16.2,,"FCCn1cc(-c2ccncc2)c(-c2ccc(OCc3ncccc3F)cc2)n1 [Compound B18, 3-fluoro-2-[[4-[1-(2-fluoroethyl)-4-(4-pyridinyl)-1H-pyrazol-3-yl]phenoxy]methyl]-pyridine.1.2 succinate]"
110,,"FCCn1cc(-c2ccncc2)c(-c2ccc(OCc3cccc(C(F)(F)F)n3)cc2)n1 [Compound B7, 2-[[4-[1-(2-fluoroethyl)-4-(4-pyridinyl)-1H-pyrazol-3-yl]phenoxy]methyl]-6-(trifluoromethyl)-pyridine]"
34.7,,"FCCn1cc(-c2ccncc2)c(-c2ccc(OCc3ccc(C4CC4)cn3)cc2)n1 [Compound B23, 5-cyclopropyl-2-[[4-[1-(2-fluoroethyl)-4-(4-pyridinyl)-1H-pyrazol-3-yl]phenoxy]methyl]-pyridine]"
3.72,,"COc1cccnc1COc1ccc(-c2nn(CCF)cc2-c2ccncc2)cc1 [Compound B16, 2-[[4-[1-(2-fluoroethyl)-4-(4-pyridinyl)-1H-pyrazol-3-yl]phenoxy]methyl]-3-methoxy-pyridine.succinate]"
6.31,,"FCCOc1cccnc1COc1ccc(-c2nn(CC(F)(F)F)cc2-c2ccncc2)cc1 [Compound B10, 3-(2-fluoroethoxy)-2-[[4-[4-(4-pyridinyl)-1-(2,2,2-trifluoroethyl)-1H-pyrazol-3-yl]phenoxy]methyl]-pyridine.succinate]"
107,,"FCCOc1ccc(COc2ccc(-c3nn(CC(F)(F)F)cc3-c3ccncc3)cc2)nc1 [Compound B11, 5-(2-fluoroethoxy)-2-[[4-[4-(4-pyridinyl)-1-(2,2,2-trifluoroethyl)-1H-pyrazol-3-yl]phenoxy]methyl]-pyridine]"

# System: not given
# Assay: not given
# Settings: not given
row,melting point [°C],Compound
1,119.65,"CCOc1cccc(COc2ccc(-c3nn(CCF)cc3-c3ccncc3)cc2)n1 (as salt: succinate) [Compound B25, 2-ethoxy-6-[[4-[1-(2-fluoroethyl)-4-(4-pyridinyl)-1H-pyrazol-3-yl]phenoxy]methyl]-pyridine.succinate]"
2,108.78,"FCCn1cc(-c2ccncc2)c(-c2ccc(OCc3cccc(Br)n3)cc2)n1 (as salt: succinate) [Compound B6, 2-bromo-6-[[4-[1-(2-fluoroethyl)-4-(4-pyridinyl)-1H-pyrazol-3-yl]phenoxy]methyl]-pyridine.0.75 succinate]"
3,91.25,"FCCn1cc(-c2ccncc2)c(-c2ccc(OCc3cccc(C4CC4)n3)cc2)n1 (as salt: succinate) [Compound B8, 2-Cyclopropyl-6-[[4-[1-(2-fluoroethyl)-4-(4-pyridinyl)-1H-pyrazol-3-yl]phenoxy]methyl]-pyridine.succinate]"
4,140.72,"FCCOc1cccnc1COc1ccc(-c2nn(CC(F)(F)F)cc2-c2ccncc2)cc1 (as salt: succinate) [Compound B10, 3-(2-fluoroethoxy)-2-[[4-[4-(4-pyridinyl)-1-(2,2,2-trifluoroethyl)-1H-pyrazol-3-yl]phenoxy]methyl]-pyridine.succinate]"
5,118.38,"FCCCn1cc(-c2ccncc2)c(-c2ccc(OCc3ncccc3OCCF)cc2)n1 (as salt: succinate) [Compound B13, 3-(2-fluoroethoxy)-2-[[4-[1-(3-fluoropropyl)-4-(4-pyridinyl)-1H-pyrazol-3-yl]phenoxy]methyl]pyridine.succinate]"
6,106.51,"Cc1cccc(COc2ccc(-c3nn(CCCF)cc3-c3ccncc3)cc2)n1 (as salt: hydrochloride) [Compound B2, 2-[[4-[1-(3-fluoropropyl)-4-(4-pyridinyl)-1H-pyrazol-3-yl]phenoxy]methyl]-6-methyl-pyridine.hydrochloride]"
7,178.95,"COc1cccnc1COc1ccc(-c2nn(CCF)cc2-c2ccncc2)cc1 (as salt: succinate) [Compound B16, 2-[[4-[1-(2-fluoroethyl)-4-(4-pyridinyl)-1H-pyrazol-3-yl]phenoxy]methyl]-3-methoxy-pyridine.succinate]"
8,126.64,"COc1ccc(COc2ccc(-c3nn(CCCF)cc3-c3ccncc3)cc2)nc1 (as salt: succinate) [Compound B14, 2-[[4-[1-(3-fluoropropyl)-4-(4-pyridinyl)-1H-pyrazol-3-yl]phenoxy]methyl]-5-methoxy-pyridine.0.5 succinate]"
9,197.08,"Cc1cnc(COc2ccc(-c3nn(CCF)cc3-c3ccncc3)cc2)c(C)c1C (as salt: succinate) [Compound B28, 2-[[4-[1-(2-fluoroethyl)-4-(4-pyridinyl)-1H-pyrazol-3-yl]phenoxy]methyl]-3,4,5-trimethyl-pyridine.succinate]"

# From patent US8852554B2, “Radiolabelled PDE10 ligands” (Janssen Pharmaceutica NV, priority 2009, dated 2014)
